Reference: publication PMC7188713, “Phase 1 study of napabucasin, a cancer stemness inhibitor, in patients with advanced solid tumors” (Cancer Chemotherapy and Pharmacology, 2020)

Tests used:
[1] = tested on: advanced solid tumors; test: Antitumor activity (RECIST 1.1 tumor response, PFS, OS, STAT3 SNP genotype); type: in vivo, Japanese patients
Method: (§1) Assessments of antitumor activity were objective tumor response, median progression-free survival (PFS) and median overall survival (OS). Tumor response was evaluated according to RECIST 1.1 [21]. Median PFS was defined as the time from the day of the first dose of napabucasin to the date of progressive disease (PD), if neither was observed, the patient was to be censored at the last assessment of tumor response. Median OS was defined as the time from the first dose of napabucasin to the date of death from any cause. Patients who were still alive at the final observation were to be censored at the date they were last known to be alive. STAT3 single nucleotide polymorphism (SNP) genotyping was carried out using DNA extracted from whole blood samples to assess tumor response, median PFS, and median OS. Immunohistochemistry (IHC), mutation analysis (Oncomine Comprehensive Assay), and microsatellite instability analyses were performed in tumor tissue samples obtained from patients who provided additional consent to assess the relationship between specific biomarkers and the antitumor activity of napabucasin. IHC staining of phosphorylated STAT3 (pSTAT3) was carried out on archived tumor samples which were collected pre-treatment, and de novo lesions during and post-treatment were also collected, according to the protocol of a recent Phase 3 study. Positive pSTAT3 staining was defined as cancer cell nuclear staining ≥ 5% plus a stroma staining score of at least 2. The biomarker testing facility was responsible for IHC staining and storage of tumor samples. If consent to a genetic test was withdrawn, samples and associated analyses were discarded.
The safety and antitumor activity (intention-to-treat [ITT]) analysis populations included all patients that received at least one dose of napabucasin. The DLT analysis population included all patients that received at least one dose of napabucasin with at least 80% compliance ([number of capsules actually ingested/number of capsules that should have been ingested per dose […]] × 100) during the DLT evaluation period, and those patients who experienced DLT during the evaluation period regardless of compliance. The PK population included all patients that received at least one dose of napabucasin and had plasma napabucasin concentration data for at least one-time point after the first dose of napabucasin.

[2] = tested on: prostate cancer cell; parameters: method as in PMID 26899963; conditions: in vitro; cited from earlier work
[3] = tested on: colorectal cancer; parameters: method as in PMID 29397354; conditions: cited from earlier work
[4] = tested on: NAD(P)H: quinone oxidoreductase-1; parameters: method as in PMID 31527169; conditions: results in redox cycling and ROS generation; cited from earlier work
[5] = tested on: CSCs; parameters: method as in PMID 25605917; conditions: cited from earlier work
[6] = tested on: advanced cancer; conditions: cited from earlier work
[7] = tested on: phosphorylated STAT3 (pSTAT3); test: pSTAT3 IHC staining of tumor samples; type: in vivo, Japanese patients; conditions: one colorectal cancer patient
Method: as §1

[8] = Post-napabucasin: Day 26 from the first dose, treatment ongoing

## CC(=O)c1cc2c(o1)C(=O)c1ccccc1C2=O [napabucasin]
[1]; Cohort 1 (480 mg/day)
  Median OS: 8.28 months
  Median PFS: 1.87 months
[1]; Cohort 2 (960 mg/day)
  Median OS: 5.03 months
  Median PFS: 1.76 months
[1]; Cohort 3 (1440 mg/day)
  Median OS: 5.68 months
  Median PFS: 1.45 months
[1]; DNA from whole blood, G/G, C/C, C/G genotypes
  Antitumor activity by STAT3 SNP genotype: no difference in antitumor activity between G/G, C/C, and C/G genotypes
[1]; ITT population
  Median OS: 5.83 months
  Median PFS: 1.71 months
[1]; RECIST 1.1, 14 patients
  Patients with progressive disease (PD): 12 patients
[1]; RECIST 1.1, 14 patients, both colorectal cancer
  Patients with stable disease (SD) as best overall tumor response: two
[1]; one patient in Cohort 1 (480 mg/day)
  Duration of SD: 56 days
[1]; one patient in Cohort 3 (1440 mg/day)
  Duration of SD: 82 days
[1]; this study
  Proportion of patients who achieved SD: 14%
[2]
  Effect on prostate cancer cells: inhibited prostate cancer cell survival, motility, and tumorigenesis in vitro
[3]
  Patients who achieved SD: 12%
[4]
  Bioactivation: bioactivated by NAD(P)H: quinone oxidoreductase-1
[5]
  Selectivity for CSCs: selectively targets CSCs, leaving normal hematopoietic stem cells unaffected
[6]; 14 cohorts, N = 41
  Dose up to which napabucasin was well tolerated: up to 2000 mg/day
[6]; Phase 1 dose-escalation study
  Patients with SD as the best response: 65%
[7]; post-napabucasin (during treatment), positive = nuclear staining ≥ 5% plus stroma score at least 2
  pSTAT3 status: positive
[7]; [8]
  % Nuclear tumor positive (pSTAT3 IHC): 10%
  H-score (pSTAT3 IHC): 15
  Microenvironment % positive (pSTAT3 IHC): 50%
  Microenvironment intensity (pSTAT3 IHC): 2
  Percent nuclear tumor staining 0 (pSTAT3 IHC): 90%
  Percent nuclear tumor staining 1 + (pSTAT3 IHC): 5%
  Percent nuclear tumor staining 2 + (pSTAT3 IHC): 5%
  Percent nuclear tumor staining 3 + (pSTAT3 IHC): 0%
